Assay type in all cases: cell-based, human
Assay [1] concerns p-Akt (S473) in KG-1a cells. In words: p-Akt (S473) in KG-1a cells by Western blotting. The note with it: IC50 concentration, 6 h. The protocol:
(§1) KG-1a cells (1.5 × 10^5 cells/mL) were treated with compounds or extracts at different incubation times. Then, the cells were harvested and the whole proteins were extracted using a RIPA buffer (25 mM Tris-base, pH 7.6, 0.1% SDS, 1% Triton X-100, 150 mM NaCl, and 1 mM EDTA). The protein concentration was measured using the Folin-Lowry or Bradford assay. The whole protein lysates (30 µg/lane) were then separated through 7.5% SDS-PAGE under reducing conditions and then transferred to PVDF membranes. The membranes were blocked in 5% skim milk in PBS, pH 7.4 at RT for 2 h, then, target proteins were probed with specific primary antibodies (anti-WT1, anti-CD34, anti-GAPDH, anti-cleaved caspase-3, anti-cleaved PARP, anti-phospho-Akt, anti-phospho-c-Jun, anti-phospho-SAPK/JNK, and anti-YAP/TAZ) indicated in Table S10 which diluted at a ratio of 1:1,000 in PBS, pH 7.4 at RT for 2 h. After incubation, the membranes were rinsed 6 times with 0.1% Tween-20 (Sigma-Aldrich, MA, USA) in PBS, pH 7.4 (PBS-T), each time for 5 min. […] Finally, the protein band signal was quantified by using a scan densitometer (Bio-Rad Laboratories, CA, USA). […]

Assay [2] deals with p-c-Jun and p-SAPK/JNK in KG-1a cells. As to the kind of experiment: p-c-Jun and p-SAPK/JNK in KG-1a cells by Western blotting. The settings on record: IC50 concentration, 6 h. As to the method:
as §1
A general note: Immunoblotting shows a protein as a band on a membrane.

Assay [3] has as its system PBMCs. In words: MTT cytotoxicity assay in PBMCs. The note with it: Homo sapiens, PBMC; for IC20: incubation for 48 h, read-out: IC20 PBMCs (inhibitory concentration at 20% growth).
In assay [4] the test system is KG-1a cells. In words: Trypan blue exclusion test, cell numbers of KG-1a cells. The settings on record: IC20 concentrations, 48 h. As to the method:
This test was used to confirm the cytotoxicity of the test samples. The cancer cells after exposure to crude ethanolic extracts and active compounds for 48 h were harvested and washed with ice-cold PBS, pH 7.4 for 3 times. Then, the cells were resuspended with PBS, pH 7.4. The cell suspensions were diluted with PBS, pH 7.4 at the appropriate dilution before being mixed with 0.2% trypan blue solution at 1:2 dilution for cell count on a hemocytometer. From this test, the viable cells and the dead cells could also be obviously detected.
This test was used to confirm the cytotoxicity of crude ethanolic extracts and active compounds. KG-1a cells after exposure to crude ethanolic extracts and active compounds for 48 h were harvested and washed with ice-cold PBS, pH 7.4 for 3 times. Then, the cells were resuspended with PBS, pH 7.4. The cell suspensions were diluted with PBS, pH 7.4 at the appropriate dilution before being mixed with 0.2% trypan blue solution at 1:2 dilution for cell count on a hemocytometer. From this test, the viable cells and the dead cells could also be obviously detected.

Assay [5] deals with CD34 protein expression in KG-1a cells. In words: CD34 protein expression in KG-1a cells by Western blotting. The settings on record: IC20 concentrations, 48 h, normalized to GAPDH. The protocol: (§2) KG-1a cells (1.5 × 10^5 cells/mL) were treated with compounds or extracts at different incubation times. Then, the cells were harvested and the whole proteins were extracted using a RIPA buffer (25 mM Tris-base, pH 7.6, 0.1% SDS, 1% Triton X-100, 150 mM NaCl, and 1 mM EDTA). The protein concentration was measured using the Folin-Lowry or Bradford assay. The whole protein lysates (30 µg/lane) were then separated through 7.5% SDS-PAGE under reducing conditions and then transferred to PVDF membranes. The membranes were blocked in 5% skim milk in PBS, pH 7.4 at RT for 2 h, then, target proteins were probed with specific primary antibodies (anti-WT1, anti-CD34, anti-GAPDH, anti-cleaved caspase-3, anti-cleaved PARP, anti-phospho-Akt, anti-phospho-c-Jun, anti-phospho-SAPK/JNK, and anti-YAP/TAZ) indicated in Table S10 which diluted at a ratio of 1:1,000 in PBS, pH 7.4 at RT for 2 h. After incubation, the membranes were rinsed 6 times with 0.1% Tween-20 (Sigma-Aldrich, MA, USA) in PBS, pH 7.4 (PBS-T), each time for 5 min. The reaction was followed by HRP-conjugated secondary antibody at 1:20,000 dilution in PBS, pH 7.4 at RT for 2 h, then, the membranes were rinsed 6 times for 5 min each with PBS-T. The proteins were shown using Immobilon Forte Western HRP substrate (Millipore, MA, USA). Finally, the protein band signal was quantified by using a scan densitometer (Bio-Rad Laboratories, CA, USA).

For assay [6], the system named is TAZ protein expression in KG-1a cells. In words: TAZ protein expression in KG-1a cells by Western blotting. The note with it: IC50 concentrations, 0–12 h. As to the method:
KG-1a cells (1.5 × 10^5 cells/mL) were treated with compounds or extracts at different incubation times. Then, the cells were harvested and the whole proteins were extracted using a RIPA buffer (25 mM Tris-base, pH 7.6, 0.1% SDS, 1% Triton X-100, 150 mM NaCl, and 1 mM EDTA). The protein concentration was measured using the Folin-Lowry or Bradford assay. The whole protein lysates (30 µg/lane) were then separated through 7.5% SDS-PAGE under reducing conditions and then transferred to PVDF membranes. The membranes were blocked in 5% skim milk in PBS, pH 7.4 at RT for 2 h, then, target proteins were probed with specific primary antibodies (anti-WT1, anti-CD34, anti-GAPDH, anti-cleaved caspase-3, anti-cleaved PARP, anti-phospho-Akt, anti-phospho-c-Jun, anti-phospho-SAPK/JNK, and anti-YAP/TAZ) indicated in Table S10 which diluted at a ratio of 1:1,000 in PBS, pH 7.4 at RT for 2 h. After incubation, the membranes were rinsed 6 times with 0.1% Tween-20 (Sigma-Aldrich, MA, USA) in PBS, pH 7.4 (PBS-T), each time for 5 min. […] Finally, the protein band signal was quantified by using a scan densitometer (Bio-Rad Laboratories, CA, USA).

Assay [7] relates to KG-1a cells. As to the kind of experiment: MTT cytotoxicity assay in KG-1a cells. The settings on record: for IC50 / IC20: Homo sapiens, KG-1a; for IC20: read-out: IC20 KG-1a (inhibitory concentration at 20% growth); for Selectivity index (SI): IC50 for normal cells (PBMCs) / IC50 for cancer cells (KG-1a). (In general: Formazan colour is commonly taken as a measure of viable cells.)

Assay [8] has as its system WT1 protein expression in KG-1a cells. As to the kind of experiment: WT1 protein expression in KG-1a cells by Western blotting. The protocol:
as §2

Setting [9] is: Table S8, PBMCs, first replicate, read-out: IC50 value R1.
[10] abbreviates: Table S8, PBMCs, second replicate, read-out: IC50 value R2.
[11] abbreviates: Table S8, PBMCs, third replicate, read-out: IC50 value R3.
The mark [12] stands for this setting: active compounds and drugs, MTT, 48 h, read-out: IC50 PBMCs.
Where [13] appears, read: 48 h, active compounds and drugs, MTT, 48 h, read-out: IC50 KG-1a.
Setting [14] is: Table S7, KG-1a, first replicate, read-out: IC50 value R1.
Where [15] appears, read: Table S7, KG-1a, third replicate, read-out: IC50 value R3.
Where [16] appears, read: active compounds and drugs, MTT, 48 h.
Setting [17] is: IC20 concentrations, 48 h, normalized to GAPDH.

Data on two compounds can be found in paper PMC11869560, “Anticancer and cancer preventive activities of shogaol and curcumin from Zingiberaceae family plants in KG-1a leukemic stem cells” (BMC Complementary Medicine and Therapies, 2025).

Each structure is given as a SMILES string. In brackets after ≈: the same amount, converted by molar mass. Like-named read-outs stand apart in the source and are kept apart here.

As usually defined, the IC50 is the concentration that inhibits the measured activity by half.

Regarding `COc1cc(/C=C/C(=O)CC(=O)/C=C/c2ccc(O)c(OC)c2)ccc1O` [Curcumin, curcumin], the “p-Akt (S473) level compared to VC” value in assay [1] is recorded as “decreased”. The “p-c-Jun and p-SAPK/JNK levels compared to VC” value in assay [2] is “increased”. Further, the IC50 was found to be 13.8 µg/mL (≈ 37.4 µM) in assay [3] (setting [9]); 14.6 µg/mL (≈ 39.6 µM) in assay [3] (setting [10]); 13 µg/mL (≈ 35.2 µM) in assay [3] (setting [11]); 13.8 ± 0.82 µg/mL (≈ 37.4 µM) in assay [3] (setting [12]); 10 µg/mL (≈ 27.1 µM) in assay [7] (setting [13]); 10.4 µg/mL (≈ 28.2 µM) in assay [7] (setting [14]). The IC50 in assay [7] (Table S7, KG-1a, second replicate, read-out: IC50 value R2) was 10.6 µg/mL (≈ 28.7 µM); in assay [7] (setting [15]), 10.6 µg/mL (≈ 28.8 µM). In addition, the IC20 in assay [3] turned out to be 3.72 ± 0.58 µg/mL (≈ 10.1 µM); in assay [7] (48 h, incubation for 48 h), 3.51 ± 0.59 µg/mL (≈ 9.53 µM). In assay [4], the “decrease of total cell number compared to VC” value came out at 40.75 ± 12.78%. Also, the “normalized viable cell counts” value in assay [4] is recorded as 954.40 ± 3.19 × 10^3 cells per 1 million total cells. The “decrease of CD34 protein level compared to VC” value in assay [5] came to 29.29 ± 2.43%. In assay [6], the “effect on TAZ protein abundance” value is on record as “no significant change in its abundance was observed”. Also, the “Selectivity index (SI)” value in assay [7] (48 h) was 1.31; in assay [7] (48 h, listed as curcumin) it was “greater than 1”. For the same compound, in assay [7] (setting [16]), the “IC50 KG-1a” value came out at 10.52 ± 0.12 µg/mL (≈ 28.6 µM). For the same compound, in assay [7] (incubation for 48 h), the “IC20 KG-1a (inhibitory concentration at 20% growth)” value was 3 µg/mL (≈ 8.14 µM). Also, the “decrease of WT1 protein level compared to VC” value was found to be 44.05 ± 9.81% in assay [8] (setting [17]) and 77.01 ± 8.80% in assay [8] (IC50 concentration, 6 h).
Regarding `CCCCC/C=C/C(=O)CCc1ccc(O)c(OC)c1` [Shogaol, shogaol], the “p-Akt (S473) level compared to VC” value in assay [1] is reported as “decreased”. In assay [2], the “p-c-Jun and p-SAPK/JNK levels compared to VC” value is “increased”. Besides, the IC50 in assay [3] (setting [9]) amounted to 8.3 µg/mL (≈ 30 µM); in assay [3] (setting [10]) it was 9.9 µg/mL (≈ 35.8 µM); in assay [3] (setting [11]), 9.35 µg/mL (≈ 33.8 µM); in assay [3] (setting [12]), 9.18 ± 0.82 µg/mL (≈ 33.2 µM); in assay [7] (setting [13]), 2.99 ± 0.01 µg/mL (≈ 10.8 µM); in assay [7] (setting [14]), 2.98 µg/mL (≈ 10.8 µM). Also, the IC50 in assay [7] (Table S7, KG-1a, mean of R1-R3, read-out: IC50 value Mean) was 2.99 µg/mL (≈ 10.8 µM); in assay [7] (setting [15]) it was 2.99 µg/mL (≈ 10.8 µM). The IC20 in assay [3] stood at 6.06 ± 1.11 µg/mL (≈ 21.9 µM); in assay [7] (48 h, incubation for 48 h) it was 0.12 µg/mL (≈ 0.434 µM). Further, the “decrease of total cell number compared to VC” value in assay [4] worked out at 35.32 ± 6.10%. Moreover, the “normalized viable cell counts” value in assay [4] is 976.13 ± 13.69 × 10^3 cells per 1 million total cells. The “decrease of CD34 protein level compared to VC” value in assay [5] is listed as 35.93 ± 3.70%. In addition, the “effect on TAZ protein abundance” value in assay [6] is recorded as “no significant change in its abundance was observed”. For the same compound, the “Selectivity index (SI)” value in assay [7] (48 h) was determined as 3.07. The “IC50 KG-1a” value in assay [7] (setting [16]) is recorded as 3 µg/mL (≈ 10.9 µM). The “decrease of WT1 protein level compared to VC” value in assay [8] (setting [17]) is 30.71 ± 3.90%; in assay [8] (IC50 concentration, 3 h), 22.58 ± 3.99%.
